# According to EP3046573B1, “AMYLIN ANALOGUES” (Zealand Pharma A/S, priority 2013, dated 2015):
# Marks after values point to notes of the source that are not given here. Numbered stars: 1 amine (or outer) side, 2 acyl side, 3 side chain; on linkers, the order of the positions; unused ones are H or OH. Bridge positions count the residues as written; N and C are the ends. Square brackets hold non-standard residues; d marks the D form. Peptide text beside a SMILES is read from it. * marks the point of attachment. C20 diacid = O=C(O)CCCCCCCCCCCCCCCCCCC(=O)*; Pro(4R-NH2) = N[C@H]1CN[C@H](C(=O)O)C1; γGlu = O=C(O)[C@H](CCC(=O)[*:2])N[*:1]; Hyp = O=C(O)[C@@H]1C[C@@H](O)CN1; NMeI = CC[C@H](C)[C@H](NC)C(=O)O; Sar = CNCC(=O)O
# Legend:
# [1] = test system: Sprague Dawley (SD) rats; assay: Acute food intake and body weight in normal Sprague Dawley rats; assay type: in vivo; conditions: vehicle-corrected, dose 30 nmol/kg sc, once; for Body weight loss (%) after 96 hours: mean ± SEM, n = 8
# Experimental: Sprague Dawley (SD) rats were obtained from Taconic A/S, Denmark. The animals arrived at least 7 days before the study start to allow acclimatization to experimental conditions. From arrival and throughout the study, the rats were housed in groups of 2 (n = 2) in a light-, temperature- and humidity-controlled room (reversed 12/12 h light/dark cycle: lights turned off during day-time and on during night-time; temperature 20-22°C; relative humidity 50-80%). Animals had access ad libitum to food (Altromin™ 1324, Brogaarden A/S, Gentofte, Denmark) and water (domestic quality tap water with citric acid added to pH ∼ 3.6) during the entire study. Stratification of rats was based on body weight (BW) on a cage-by-cage basis; mean BWs per cage were used as the basis for pairing four cages together in a group (n = 8 per group). A vehicle group and positive control group were included in each set of tests. Rats were dosed subcutaneously (sc) once in the morning immediately before turning off the lights, using a body weight-corrected dose of peptide (30 nmol/kg). Dosing volume was 5 ml/kg. Food intake was recorded manually at t = 0 (pre-dose) and at t = 4, 7, 10, 24, 48, 72 and 96 hours after dosing. Body weight was measured daily.
# Statistical analyses on body weight were performed using GraphPad™ Prism version 5. The measured parameters were compared using unpaired t tests. Differences were considered statistically significant at p < 0.05. Data are means ± SEM; n =8.
# [2] = Assessment of physical stability: fibril formation detected with Thioflavin T (ThT), lag-time; assay type: physicochemical; conditions: 1 mg/ml peptide, 40 µM ThT, FND = Fibrillation not detected; for Fibrillation lag time (hours) pH 4.0 (Ac): 50 mM acetate buffer pH 4.0, 96 hours at 40°C; for Fibrillation lag time (hours) pH 7.0 (His): 50 mM histidine buffer pH 7.0, 96 hours at 40°C; for Fibrillation lag time (hours) pH 7.0 (Ph): 50 mM phosphate buffer pH 7.0, 96 hours at 40°C
# Procedure, shortened: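 Test peptide at 1 mg/ml with 40 µM ThT in 50 mM phosphate (pH 7.0), 50 mM histidine (pH 7.0) or 50 mM acetate (pH 4.0), in triplicate, 40° C. for 96 h. Fluorescence read every 10 min after 300 s agitation. Lag-time (h) taken as intersection of linear fits to initial stable and growth phases.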
# [3] = Assessment of chemical stability: normalized purity by RP-HPLC after incubation at 40 °C; assay type: physicochemical; conditions: normalized purity (T=0 set to 100), 0.2 mg/ml; for Chem. stability; 7 days, 40°C pH 4: pH 4, 7 days; for Chem. stability; 7 days, 40°C pH 7.5: pH 7.5, 7 days; for Chem. stability; 7 days, 40°C pH 9: pH 9, 7 days
# Experimental: Samples of each test peptide were dissolved in MilliQ™ water, and the pH of the solution was adjusted to pH 4, pH 7.5 or pH 9, respectively, using either HCI or NaOH. The final peptide concentration was 0.2 mg/ml. Samples were placed in glass vials and incubated at 40 °C. The samples were analyzed by RP-HPLC on a C8 column with gradient elution using an ammonium formate/water eluent system, or on a C18 column with gradient elution using a trifluoroacetic acid/water eluent system. The area-percentage (area-%) of the main peak after incubation time T = t (relative to time T = 0) was determined by UV spectroscopy at 220 nm.
# The purity was first determined as follows: Purity(area−%) = (area of main peak/total area of all peaks) × 100. [formula]
# The purity was then normalized between time points by setting purity at time 0 (T=0) to 100 for each pH value for a given peptide, as follows: Normalised area−%at time t(T = t) = [area−%(T = t)/area−%(T = 0)] × 100. [formula]
# The normalized purity values in Table 2 were determined after 7 days of incubation. Table 2. EC50, chemical stability and fibrillation data for compounds of the invention
Structure (SMILES),Food intake inhibition (%) after 48 hours [1] [%],Body weight loss (%) after 96 hours [1] [%],Fibrillation lag time (hours) pH 4.0 (Ac) [2],Fibrillation lag time (hours) pH 7.0 (His) [2],Fibrillation lag time (hours) pH 7.0 (Ph) [2],"Chem. stability; 7 days, 40°C pH 4 [3] [area-%]","Chem. stability; 7 days, 40°C pH 7.5 [3] [area-%]","Chem. stability; 7 days, 40°C pH 9 [3] [area-%]"
"CC[C@H](C)[C@@H](C(=O)N[C@@H](CC(C)C)C(=O)N[C@@H](CO)C(=O)N[C@@H](CO)C(=O)N[C@H](C(=O)N[C@@H](CC(N)=O)C(=O)N[C@H](C(=O)NCC(=O)N[C@@H](CO)C(=O)N[C@@H](CC(N)=O)C(=O)N[C@H](C(=O)N1CCC[C@H]1C(N)=O)[C@@H](C)O)C(C)C)[C@@H](C)O)N(C)C(=O)[C@H](C)NC(=O)CN(C)C(=O)[C@H](Cc1ccccc1)NC(=O)[C@H](CC(N)=O)NC(=O)[C@H](CC(N)=O)NC(=O)[C@H](CO)NC(=O)[C@H](CO)NC(=O)[C@H](Cc1c[nH]cn1)NC(=O)[C@H](Cc1c[nH]cn1)NC(=O)[C@H](CC(C)C)NC(=O)[C@H](Cc1ccccc1)NC(=O)[C@H](CCC(=O)O)NC(=O)[C@H](C)NC(=O)[C@H](CC(C)C)NC(=O)[C@H](CCCNC(=N)N)NC(=O)[C@H](CCC(N)=O)NC(=O)[C@@H](NC(=O)[C@H](C)NC(=O)[C@@H]1CSSC[C@H](NC(=O)[C@H](CCCNC(=N)N)NC(=O)CC[C@H](NC(=O)CCCCCCCCCCCCCCCCCCC(=O)O)C(=O)O)C(=O)N[C@@H](CC(N)=O)C(=O)N[C@@H]([C@@H](C)O)C(=O)N[C@@H](C)C(=O)N[C@@H]([C@@H](C)O)C(=O)N1)[C@@H](C)O [Compound 1, [19CD]-isoGlu-RC()NTATC()ATQRLAEFLHHSSNNF-Gly(Me)-A-Ile(Me)-LSSTNVGSNTP-NH2] ({C20 diacid-γGlu}-RCNTATCATQRLAEFLHHSSNNF[Sar]A[NMeI]LSSTNVGSNTP-NH2; disulfide 2-7)",98,9 ± 1.8,FND^§§,FND,FND,89,64,56
"CC[C@H](C)[C@@H](C(=O)N[C@@H](CC(C)C)C(=O)N[C@@H](CO)C(=O)N[C@@H](CO)C(=O)N[C@H](C(=O)N[C@@H](CC(N)=O)C(=O)N[C@H](C(=O)NCC(=O)N[C@@H](CO)C(=O)N[C@@H](CC(N)=O)C(=O)N[C@H](C(=O)N1CCC[C@H]1C(N)=O)[C@@H](C)O)C(C)C)[C@@H](C)O)N(C)C(=O)[C@H](C)NC(=O)CN(C)C(=O)[C@H](Cc1ccccc1)NC(=O)[C@H](CC(N)=O)NC(=O)[C@H](CC(N)=O)NC(=O)[C@H](CO)NC(=O)[C@H](CO)NC(=O)[C@H](CCCNC(=N)N)NC(=O)[C@H](Cc1c[nH]cn1)NC(=O)[C@H](CC(C)C)NC(=O)[C@H](Cc1ccccc1)NC(=O)[C@H](CCC(=O)O)NC(=O)[C@H](C)NC(=O)[C@H](CC(C)C)NC(=O)[C@H](CCCNC(=N)N)NC(=O)[C@H](CCC(N)=O)NC(=O)[C@@H](NC(=O)[C@H](C)NC(=O)[C@@H]1CSSC[C@H](NC(=O)[C@H](CCCCN)NC(=O)[C@H](CCCCN)NC(=O)CC[C@H](NC(=O)CCCCCCCCCCCCCCCCCCC(=O)O)C(=O)O)C(=O)N[C@@H](CC(N)=O)C(=O)N[C@@H]([C@@H](C)O)C(=O)N[C@@H](C)C(=O)N[C@@H]([C@@H](C)O)C(=O)N1)[C@@H](C)O [Compound 87, [19CD]-isoGlu-KKC()NTATC()ATQRLAEFLHRSSNNF-Gly(Me)-A-Ile(Me)-LSSTNVGSNTP-NH2] ({C20 diacid-γGlu}-KKCNTATCATQRLAEFLHRSSNNF[Sar]A[NMeI]LSSTNVGSNTP-NH2; disulfide 3-8)",98,10 ± 1.2,78^‡ hours,FND,50^‡‡ hours,63,39,40
"CC[C@H](C)[C@@H](C(=O)N[C@@H](CC(C)C)C(=O)N[C@@H](CO)C(=O)N[C@@H](CO)C(=O)N[C@H](C(=O)N[C@@H](CC(N)=O)C(=O)N[C@H](C(=O)NCC(=O)N[C@@H](CO)C(=O)N[C@@H](CC(N)=O)C(=O)N[C@H](C(=O)N1C[C@H](O)C[C@H]1C(N)=O)[C@@H](C)O)C(C)C)[C@@H](C)O)N(C)C(=O)[C@H](C)NC(=O)CN(C)C(=O)[C@H](Cc1ccccc1)NC(=O)[C@H](CC(N)=O)NC(=O)[C@H](CC(N)=O)NC(=O)[C@H](CO)NC(=O)[C@H](CO)NC(=O)[C@H](CCCNC(=N)N)NC(=O)[C@H](Cc1c[nH]cn1)NC(=O)[C@H](CC(C)C)NC(=O)[C@H](Cc1ccccc1)NC(=O)[C@H](CCC(=O)O)NC(=O)[C@H](C)NC(=O)[C@H](CC(C)C)NC(=O)[C@H](CCCNC(=N)N)NC(=O)[C@H](CCC(N)=O)NC(=O)[C@@H](NC(=O)[C@H](C)NC(=O)[C@@H]1CSSC[C@H](NC(=O)[C@H](CCCNC(=N)N)NC(=O)CC[C@H](NC(=O)CCCCCCCCCCCCCCCCCCC(=O)O)C(=O)O)C(=O)N[C@@H](CC(N)=O)C(=O)N[C@@H]([C@@H](C)O)C(=O)N[C@@H](C)C(=O)N[C@@H]([C@@H](C)O)C(=O)N1)[C@@H](C)O [Compound 105, [19CD]-isoGlu-RC()NTATC()ATQRLAEFLHRSSNNF-Gly(Me)-A-Ile(Me)-LSSTNVGSNT-Hyp-NH2] ({C20 diacid-γGlu}-RCNTATCATQRLAEFLHRSSNNF[Sar]A[NMeI]LSSTNVGSNT[Hyp]-NH2; disulfide 2-7)",–,7 ± 2.4,FND,FND,FND,57,57,42
"CC[C@H](C)[C@@H](C(=O)N[C@@H](CC(C)C)C(=O)N[C@@H](CO)C(=O)N[C@@H](CO)C(=O)N[C@H](C(=O)N[C@@H](CC(N)=O)C(=O)N[C@H](C(=O)NCC(=O)N[C@@H](CO)C(=O)N[C@@H](CC(N)=O)C(=O)N[C@H](C(=O)N1C[C@H](N)C[C@H]1C(N)=O)[C@@H](C)O)C(C)C)[C@@H](C)O)N(C)C(=O)[C@H](C)NC(=O)CN(C)C(=O)[C@H](Cc1ccccc1)NC(=O)[C@H](CC(N)=O)NC(=O)[C@H](CC(N)=O)NC(=O)[C@H](CO)NC(=O)[C@H](CO)NC(=O)[C@H](CCCNC(=N)N)NC(=O)[C@H](Cc1c[nH]cn1)NC(=O)[C@H](CC(C)C)NC(=O)[C@H](Cc1ccccc1)NC(=O)[C@H](CCC(=O)O)NC(=O)[C@H](C)NC(=O)[C@H](CC(C)C)NC(=O)[C@H](CCCNC(=N)N)NC(=O)[C@H](CCC(N)=O)NC(=O)[C@@H](NC(=O)[C@H](C)NC(=O)[C@@H]1CSSC[C@H](NC(=O)[C@H](CCCNC(=N)N)NC(=O)CC[C@H](NC(=O)CCCCCCCCCCCCCCCCCCC(=O)O)C(=O)O)C(=O)N[C@@H](CC(N)=O)C(=O)N[C@@H]([C@@H](C)O)C(=O)N[C@@H](C)C(=O)N[C@@H]([C@@H](C)O)C(=O)N1)[C@@H](C)O [Compound 110, [19CD]-isoGlu-RC()NTATC()ATQRLAEFLHRSSNNF-Gly(Me)-A-Ile(Me)-LSSTNVGSNT-Apr-NH2] ({C20 diacid-γGlu}-RCNTATCATQRLAEFLHRSSNNF[Sar]A[NMeI]LSSTNVGSNT[Pro(4R-NH2)]-NH2; disulfide 2-7)",98,11 ± 1.1,FND,FND,FND,74,66,59
